From patent US20240041042A1, “1-(PYRIDYL)-5-AZINYLPYRAZOLE DERIVATIVES, AND THEIR USE FOR CONTROL OF UNDESIRED PLANT GROWTH” (Bayer Aktiengesellschaft, priority 2020, published 2024)
Read-outs that look alike come from different tables or passages of the source.

Assays:
Format in all cases: in vivo
[1] = system: Verconica persica (VERPE); experiment: Pre-emergence herbicidal action against VERPE; conditions: dosage 320 g/ha
How it was run: (§1)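 Greenhouse pot trial: seeds sown, soil-covered, sprayed before emergence with compound in water (0.5% additive; 600 l/ha; ≤320 g/ha). Scoring visual, ~3 weeks, 0–100% scale vs untreated.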

[2] = system: Pharbitis purpurea (PHBPU); experiment: Post-emergence herbicidal action against PHBPU
How it was run: (§2)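 Post-emergence greenhouse spray, one-leaf stage, 600 l/ha water plus 0.5% additive; WP or EC formulations; application rates 320 g/ha or lower. Visual % damage vs untreated controls at ~3 weeks.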

[3] = system: Amaranthus retroflexus (AMARE); experiment: Pre-emergence herbicidal action against AMARE; conditions: visual scoring after about 3 weeks vs untreated controls
How it was run: as §1

Viola tricolor (VIOTR) = experiment: Post-emergence herbicidal action against VIOTR
How it was run: as §2

Zea mays (ZEAMX) [4] = conditions: pre-emergence, 80 g/ha, crop plant compatibility, in comparison to untreated controls
How it was run: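 Scoring: visual, % of untreated control, about 3 weeks after a pre-emergence application to the soil surface. Application used WP or EC formulations diluted in water with 0.5% additive at 600 l/ha; dosage levels are marked by suffixes a, b and c.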

Zea mays (ZEAMX) [5] = conditions: crop plant compatibility, 80 g/ha, effect vs untreated controls
How it was run: (§3)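 Foliar application at the one-leaf stage: WP/EC formulation, 0.5% additive, 600 l/ha water. Greenhouse-grown in sandy loam. Endpoint is visual % injury relative to untreated controls at about 3 weeks.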

Oryza sativa (ORYSA) = conditions: crop plant compatibility, effect in comparison to untreated controls
How it was run: as §3

[6] = system: Digitaria sanguinalis (DIGSA); experiment: Pre-emergence herbicidal action against DIGSA; conditions: dosage 320 g/ha
How it was run: as §1

[7] = system: Polygonum convolvulus (POLCO); experiment: Post-emergence herbicidal action against POLCO
How it was run: as §2

[8] = system: Verconica persica (VERPE); experiment: Post-emergence herbicidal action against VERPE; conditions: 320 g/ha, VERPE
How it was run: as §2

[9] = system: Amaranthus retroflexus (AMARE); experiment: Post-emergence herbicidal action against AMARE
How it was run: as §2

Lolium rigidum (LOLRI) [10] = experiment: Pre-emergence herbicidal action against LOLRI; conditions: dosage 320 g/ha
How it was run: as §1

[11] = system: Matricaria inodora (MATIN); experiment: Post-emergence herbicidal action against MATIN; conditions: dosage 320 g/ha
How it was run: as §2

[12] = system: Alopecurus myosuroides (ALOMY); experiment: Pre-emergence herbicidal action against ALOMY; conditions: 320 g/ha; scored visually after about 3 weeks; 100% = plants have died
How it was run: as §1

Lolium rigidum (LOLRI) [13] = experiment: Post-emergence herbicidal action against LOLRI; conditions: dosage 320 g/ha
How it was run: as §2

Avena fatua (AVEFA) = experiment: Post-emergence herbicidal action against AVEFA; conditions: 320 g/ha, visual rating about 3 weeks after treatment
How it was run: as §2

[14] = system: Alopecurus myosuroides (ALOMY); experiment: Post-emergence herbicidal action against ALOMY; conditions: 320 g/ha, visual rating about 3 weeks after treatment vs untreated controls (100% = plants have died, 0% = like control plants)
How it was run: as §2

[15] = system: Polygonum convolvulus (POLCO); experiment: Pre-emergence herbicidal action against POLCO; conditions: dosage 320 g/ha
How it was run: as §1

[16] = system: Digitaria sanguinalis (DIGSA); experiment: Post-emergence herbicidal action against DIGSA; conditions: 320 g/ha, visual rating about 3 weeks after treatment
How it was run: as §2

[17] = 320 g/ha, visual rating about 3 weeks after treatment

Pre-emergence action against ZEAMX in % (Zea mays (ZEAMX) [4]) [%]	Post-emergence action against ZEAMX in % (Zea mays (ZEAMX) [5]) [%]	Post-emergence action against ORYSA in % (Oryza sativa (ORYSA); 80 g/ha) [%]	Post-emergence action against ORYSA in % (Oryza sativa (ORYSA); 320 g/ha) [%]	SMILES	Post-emergence action against PHBPU in % ([2]; dosage 80 g/ha) [%]	Post-emergence action against PHBPU in % ([2]; dosage 320 g/ha) [%]	Pre-emergence action against AMARE in % ([3]; 320 g/ha) [%]	Post-emergence action against VIOTR in % (Viola tricolor (VIOTR); 320 g/ha) [%]	Pre-emergence action against DIGSA in % [6] [%]	Post-emergence action against POLCO in % ([7]; dosage 320 g/ha) [%]	Post-emergence action against VERPE in % [8] [%]	Post-emergence action against AMARE in % [9, 17] [%]	Pre-emergence action against LOLRI in % (Lolium rigidum (LOLRI) [10]) [%]	Pre-emergence action against ALOMY [12] [%]	other results
0	20	0	0	O=C(O)COc1nn(-c2ccccn2)c(-c2ccc(Cl)nc2)c1Br [Example I-235]	80	80	90	80	90	80	80	80	–	–	Pre-emergence action against VERPE in % [1]: 80%; Pre-emergence action against AMARE in % ([3]; 80 g/ha): 80%; Post-emergence action against VIOTR in % (Viola tricolor (VIOTR); 80 g/ha): 80%; Post-emergence action against AMARE in % ([9]; 80 g/ha, visual rating about 3 weeks after treatment vs untreated controls (100% = plants have died, 0% = like control plants)): 80%
0	0	0	0	CCOC(=O)COc1nn(-c2ccccn2)c(-c2ccc(Cl)nc2)c1Cl [Example I-241]	80	90	90	80	90	80	80	80	90	80	Post-emergence action against MATIN in % [11]: 80%; Post-emergence action against POLCO in % ([7]; dosage 80 g/ha): 80%
0	10	0	20	COC(=O)[C@@H](C)Oc1nn(-c2ccccn2)c(-c2ccc(Cl)nc2)c1Cl [Example I-237]	80	90	100	80	90	80	–	90	90	90	Post-emergence action against LOLRI in % (Lolium rigidum (LOLRI) [13]): 80%; Post-emergence action against AVEFA in % (Avena fatua (AVEFA)): 80%; Post-emergence action against ALOMY in % [14]: 80%; Pre-emergence action against POLCO in % [15]: 80%; Post-emergence action against DIGSA in % [16]: 90%
